In PMC12384515 (2023):

Assays:
Test in all cases: fluorescent intercalator displacement
Conditions in all cases: ethidium bromide (5 μM) displaced; DNA 10 μM/bp; per base
[1] = test system: A5T5 (DNA, duplex) GGGAAAAATTTTTCCC
[2] = test system: G5C5 (DNA, duplex) AAAGGGGGCCCCCTTT
[3] = test system: (AT)5 (DNA, duplex) GGGATATATATATCCC

SMILES | C50 [1] | C50 [2] | C50 [3]
CC1=CC(=[N+](C)C)C=CC1=C(c1ccc(N(C)C)cc1C)c1ccc(N(C)C)cc1C | 2.40 ± 0.02 µM | 7.21 ± 0.63 µM | 2.30 ± 0.03 µM
CN(C)c1ccc([C+](c2ccc(N(C)C)cc2)c2ccc(N(C)C)c(-c3ccccc3)c2)cc1 | – | – | 2.75 ± 0.21 µM
CN(C)c1ccc([C+](c2ccc(N(C)C)c(-c3ccccc3)c2)c2ccc(N(C)C)c(-c3ccccc3)c2)cc1-c1ccccc1 | 3.13 ± 0.01 µM | 3.36 ± 0.07 µM | –
CN(C)c1ccc([C+](c2ccc(N(C)C)cc2)c2ccc3cc(N(C)C)ccc3c2)cc1 | 0.52 ± 0.01 µM | 0.88 ± 0.01 µM | 0.32 ± 0.02 µM
